Publication PMC7376718, “Flavonoids isolated from the South African weed Chromolaena odorata (Asteraceae) have pharmacological activity against uropathogens” (BMC Complementary Medicine and Therapies, 2020)
≈ marks a conversion by molar mass, not a printed value. Read-outs that look alike come from different tables or passages of the source.

Columns and labels:
[1] = system: C. neoformans and A. fumigatus; assay: Mean MIC over the fungal isolates; format: cell-based; conditions: all time points of Table 3
Description: The cultures used were Escherichia coli (American Type Culture Collection, ATCC 25922) labelled as 1, E. coli isolates (B1989/17 and B1962/17) labelled as 2 and 3 from equine urine, collected from the Department of Veterinary Tropical Diseases, Faculty of Veterinary Science, University of Pretoria, South Africa, Klebsiella pneumoniae isolate from commercial chicken eggs, Enterococcus faecalis (ATCC 29212), Pseudomonas aeruginosa (ATCC 27853), Staphylococcus aureus (ATCC 29213), Candida albicans from a Gouldian finch, Aspergillus fumigatus from a chicken and Cryptococcus neoformans from a cheetah. These microbial strains were maintained on MHA or SDA for bacteria and fungi respectively, while the isolates were maintained on blood agar.
Ten mg/mL of each fraction and 1 mg/mL of isolated compounds were prepared in 10% DMSO and tested against S. aureus, E. coli, K. pneumoniae, E. faecalis, P. aeruginosa, C. albicans, C. neoformans and A. fumigatus. Cultures were prepared by inoculating each microbial strain from prepared agar plates into sterilized MHB for bacterial and SDB for fungi in sterile McCartney bottles respectively. The inoculums were placed in an orbital shaker incubator. Bacterial strains were incubated at 37 °C for 18 h. Each bacterial culture was diluted in fresh MHB and the absorbance was measured at a wavelength of 560 nm using a microplate reader (Epoch Biotek). The readings were compared to a McFarland standard No. 1 correlating to approximately 3 × 10^8 cfu/mL). For fungi strains, cultures were incubated at 30 °C for 24 h (C. albicans), 72 h (C. neoformans) and 120 h (A. fumigatus) respectively. The resultant cells and spores were washed with sterile normal saline and absorbance was measured at a wavelength of 560 nm and turbidity was adjusted to a McFarland standard 1.This was further diluted in a 1:10 ratio in SDB to a turbidity of 5 × 10^5 cfu/mL. These diluted cultures (bacterial and fungi) were used for the screening following the serial microdilution method of Eloff.

[2] = in vitro
Description: (§1) Different concentrations of the compounds ranging from 0.003 to 0.2 mg/mL were tested for cytotoxicity against three cell lines; Vero monkey kidney, C3A and Caco2. Vero cells were grown and maintained in MEM, supplemented with 0.1% gentamicin and 5% foetal calf serum, while Caco2 and C3A cells were grown and maintained in DMEM supplemented with 10% foetal calf serum, 1% non-essential amino acids and 1% penicillin-streptomycin. All cells were incubated in a 5% CO2 incubator at 37 °C. Doxorubicin chloride was used as positive control while 10% DMSO used in dissolving the test samples was used as the negative control. The 3-(4,5-dimethylthiazol)-2,5-diphenyl tetrazolium bromide (MTT) assay described by Mosmann with modification by McGaw et al. was used to determine the cytotoxicity of the test samples. The lethal concentration (LC50) value was calculated as the concentration of tested sample resulting in a 50% reduction of absorbance compared to untreated cells. Selectivity index (SI) values were calculated against the MIC using the formula: […]

[3] = in vitro; remark: listed apart in the source
Description: as §1

[4] = system: Vero monkey kidney cells; assay: in vitro; conditions: Vero
Description: as §1

[5] = system: S. aureus; assay: Metabolic activity inhibition (INT); format: cell-based, Staphylococcus aureus
Description: (§2) The ability of the isolated compounds to inhibit the bacterial metabolic activity was tested against E. coli and S. aureus following the method used by Ramage and Lopez-Ribot with slight modification. The organisms were inoculated in a 96-well microplate following the same biofilm assay procedure described above. The final concentration of each compound in the wells was 0.016 mg/mL, 0.031 mg/mL, 0.063 mg/mL, 0.125 mg/mL and 1 mg/mL respectively. After 24 h of incubation with samples, the plates were washed three times with sterile distilled water and 50 μL of 1 mg/mL INT was added to each well and further incubated in the dark for 2 h. After incubation, absorbance was read at 490 nm using a microplate reader and the percentages of reduction of bacterial metabolic activity in the presence of different concentrations of compounds were calculated using the formula:
(§3) percentage inhibiton=mean of culture control−mean of sample/mean of culture controlx100

[6] = system: E. coli; assay: Metabolic activity inhibition (INT); format: cell-based, Escherichia coli
Description: as §2, §3

[7] = system: Caco2 cells; assay: in vitro; conditions: Caco2
Description: as §1

[8] = system: E. coli; set-up: method as in earlier work; conditions: ref [70] Teffo et al.; cited from earlier work
[9] = system: S. aureus; set-up: method as in earlier work; conditions: ref [70] Teffo et al.; cited from earlier work

COc1ccc(C2CC(=O)c3c(OC)cc(OC)cc3O2)cc1 (racemic) [Compound 2, (±)-4′,5,7-trimethoxy flavanone]
MIC [1]: 70 ± 60 µg/mL (≈ 223 µM) | Mean MIC [1]: 0.07 mg/mL | CC50 [2]: > 200 µg/mL | CC50 [3]: 200 µg/mL (≈ 636 µM) | Selectivity index (LC50/MIC) ([4]; C. neoformans 48 h): 12.625 | Selectivity index (LC50/MIC) ([4]; C. neoformans 72 h): 1.616 | Selectivity index (LC50/MIC) ([4]; E. coli (1)): 6.515 | Selectivity index (LC50/MIC) ([4]; E. coli (2)): 6.452 | Selectivity index (LC50/MIC) ([4]; E. coli (3)): 6.452 | Selectivity index (LC50/MIC) ([4]; K. pneumoniae): 1.616 | Selectivity index (LC50/MIC) ([4]; S. aureus): 6.516 | Metabolic activity inhibition (verdict in words) [5]: good | Metabolic activity inhibition (verdict in words) ([5]; planktonic stage, MIC of 0.063 mg/mL): did not show inhibition | Metabolic activity inhibition (verdict in words) [6]: good

COc1ccc(-c2oc3cc(OC)cc(O)c3c(=O)c2OC)cc1 [Compound 3, 5-hydroxy-3,7,4′-trimethoxyflavone]
Selectivity index (LC50/MIC) ([7]; A. fumigatus 48 h): 5.129 | Selectivity index (LC50/MIC) ([7]; E. coli (1)): 2.52 | Selectivity index (LC50/MIC) ([7]; E. coli (2)): 0.636 | Selectivity index (LC50/MIC) ([7]; E. coli (3)): 0.636 | Selectivity index (LC50/MIC) ([7]; K. pneumoniae): 1.272 | Selectivity index (LC50/MIC) ([7]; S. aureus): 9.938 | MIC / antibacterial activity [8]: no activity was recorded | Selectivity index (LC50/MIC) ([4]; A. fumigatus 48 h): 6.355 | Selectivity index (LC50/MIC) ([4]; E. coli (1)): 3.127 | Selectivity index (LC50/MIC) ([4]; E. coli (2)): 0.788 | Selectivity index (LC50/MIC) ([4]; E. coli (3)): 0.788 | Selectivity index (LC50/MIC) ([4]; K. pneumoniae): 1.576 | Selectivity index (LC50/MIC) ([4]; S. aureus): 12.313 | Metabolic activity inhibition (verdict in words) [5]: good | MIC / antibacterial activity [9]: no activity was recorded | Metabolic activity inhibition (verdict in words) [6]: good
